Laboratory results: the NIST ThermoML archive (doi:10.1021/je700260f)
Numbers after ± are expanded uncertainties.

Settings: 303.15 K, Liquid, Vibrating tube method

FC(C(F)(F)F)C(F)(F)F [1,1,1,2,3,3,3-heptafluoropropane]
Settings	mass density [kg/m3]
23528 kPa	1493.1 ± 1.6
23717 kPa	1493.9 ± 1.6
23749 kPa	1494.1 ± 1.6
23780 kPa	1494.1 ± 1.6
23812 kPa	1494.2 ± 1.6
23848 kPa	1494.4 ± 1.6
23884 kPa	1494.5 ± 1.6
23911 kPa	1494.7 ± 1.6
23938 kPa	1494.6 ± 1.6
23969 kPa	1494.8 ± 1.6
24001 kPa	1494.9 ± 1.7
24032 kPa	1495.2 ± 1.7
24063 kPa	1495.2 ± 1.7
24107 kPa	1495.5 ± 1.7
24143 kPa	1495.5 ± 1.7
24178 kPa	1495.8 ± 1.7
24209 kPa	1495.8 ± 1.7
24240 kPa	1495.8 ± 1.7
24271 kPa	1496.1 ± 1.7
24303 kPa	1496.1 ± 1.7
24338 kPa	1496.2 ± 1.7
24370 kPa	1496.4 ± 1.7
24397 kPa	1496.4 ± 1.7
24429 kPa	1496.6 ± 1.7
24461 kPa	1496.8 ± 1.7
24496 kPa	1496.7 ± 1.7
24528 kPa	1497 ± 1.7
24559 kPa	1497.1 ± 1.7
24590 kPa	1497.1 ± 1.7
24626 kPa	1497.4 ± 1.7
24654 kPa	1497.4 ± 1.7
24682 kPa	1497.4 ± 1.7
24714 kPa	1497.6 ± 1.7
24750 kPa	1497.8 ± 1.7
24778 kPa	1497.8 ± 1.7
24809 kPa	1497.9 ± 1.7
24844 kPa	1498.2 ± 1.7
24868 kPa	1498.2 ± 1.7
24901 kPa	1498.4 ± 1.7
24928 kPa	1498.3 ± 1.7
24952 kPa	1498.5 ± 1.7
24987 kPa	1498.7 ± 1.7
25022 kPa	1498.7 ± 1.7
25049 kPa	1498.9 ± 1.7
25077 kPa	1498.9 ± 1.7
25110 kPa	1499.1 ± 1.7
25135 kPa	1499.1 ± 1.7
25167 kPa	1499.3 ± 1.7
25195 kPa	1499.1 ± 1.7
25223 kPa	1499.5 ± 1.7
25247 kPa	1499.5 ± 1.7
25287 kPa	1499.7 ± 1.7
25310 kPa	1499.8 ± 1.7
25346 kPa	1499.9 ± 1.7
25370 kPa	1499.9 ± 1.7
25411 kPa	1500.1 ± 1.7
25443 kPa	1500.1 ± 1.7
25467 kPa	1500.4 ± 1.7
25503 kPa	1500.4 ± 1.7
25528 kPa	1500.5 ± 1.7
25561 kPa	1500.7 ± 1.7
25602 kPa	1500.8 ± 1.7
25630 kPa	1501 ± 1.7
25658 kPa	1501.1 ± 1.7
25686 kPa	1501 ± 1.7
25715 kPa	1501.2 ± 1.7
25740 kPa	1501.3 ± 1.7
25774 kPa	1501.4 ± 1.7
25801 kPa	1501.6 ± 1.7
25837 kPa	1501.5 ± 1.7
25858 kPa	1501.5 ± 1.7
25891 kPa	1501.9 ± 1.7
25911 kPa	1501.9 ± 1.7
25944 kPa	1502 ± 1.7
25972 kPa	1502.1 ± 1.7
26000 kPa	1502.2 ± 1.7
26025 kPa	1502.4 ± 1.7
26056 kPa	1502.4 ± 1.7
26076 kPa	1502.6 ± 1.7
26109 kPa	1502.6 ± 1.7
26134 kPa	1502.8 ± 1.7
26158 kPa	1502.9 ± 1.7
26191 kPa	1502.9 ± 1.7
26216 kPa	1502.9 ± 1.7
26252 kPa	1503 ± 1.7
26284 kPa	1503.3 ± 1.7
26307 kPa	1503.3 ± 1.7
26336 kPa	1503.4 ± 1.7
26361 kPa	1503.5 ± 1.7
26394 kPa	1503.6 ± 1.7
26418 kPa	1503.8 ± 1.7
26512 kPa	1503.9 ± 1.7
26545 kPa	1504.1 ± 1.7
26714 kPa	1504.6 ± 1.7
26743 kPa	1504.8 ± 1.7
26776 kPa	1504.9 ± 1.7
26801 kPa	1505.1 ± 1.7
26834 kPa	1505.2 ± 1.7
26858 kPa	1505.2 ± 1.7
26891 kPa	1505.3 ± 1.7
26924 kPa	1505.5 ± 1.7
26948 kPa	1505.5 ± 1.7
26981 kPa	1505.7 ± 1.7
27006 kPa	1505.7 ± 1.7
27035 kPa	1505.9 ± 1.7
27060 kPa	1506 ± 1.7
27246 kPa	1506.5 ± 1.7
27275 kPa	1506.7 ± 1.7
27304 kPa	1506.8 ± 1.7
27334 kPa	1506.8 ± 1.7
27368 kPa	1507.1 ± 1.7
27464 kPa	1507.4 ± 1.7
28427 kPa	1510.7 ± 1.7
28456 kPa	1510.8 ± 1.7
28486 kPa	1510.9 ± 1.7
28516 kPa	1510.9 ± 1.7
28541 kPa	1511.1 ± 1.7
28576 kPa	1511.2 ± 1.7
28601 kPa	1511.3 ± 1.7
28636 kPa	1511.4 ± 1.7
28661 kPa	1511.3 ± 1.7
28700 kPa	1511.5 ± 1.7
28729 kPa	1511.7 ± 1.7
28768 kPa	1511.7 ± 1.7
28793 kPa	1511.8 ± 1.7
28832 kPa	1512 ± 1.7
28858 kPa	1512.2 ± 1.7
28893 kPa	1512.3 ± 1.7
28924 kPa	1512.3 ± 1.7
28967 kPa	1512.6 ± 1.7
28997 kPa	1512.6 ± 1.7
29020 kPa	1512.7 ± 1.7
29047 kPa	1512.7 ± 1.7
29074 kPa	1512.8 ± 1.7
29113 kPa	1513 ± 1.7
29139 kPa	1513 ± 1.7
29169 kPa	1513 ± 1.7
29196 kPa	1513.3 ± 1.7
29235 kPa	1513.4 ± 1.7
29267 kPa	1513.4 ± 1.7
29298 kPa	1513.6 ± 1.7
29323 kPa	1513.6 ± 1.7
29349 kPa	1513.7 ± 1.7
29389 kPa	1513.9 ± 1.7
29429 kPa	1514.1 ± 1.7
29461 kPa	1514.1 ± 1.7
29492 kPa	1514.2 ± 1.7
29527 kPa	1514.4 ± 1.7
29554 kPa	1514.5 ± 1.7
29584 kPa	1514.6 ± 1.7
29614 kPa	1514.7 ± 1.7
29645 kPa	1514.6 ± 1.7
29676 kPa	1514.8 ± 1.7
29706 kPa	1515 ± 1.7
29746 kPa	1515 ± 1.7
29773 kPa	1515.3 ± 1.7
29800 kPa	1515.3 ± 1.7
29831 kPa	1515.3 ± 1.7
29866 kPa	1515.5 ± 1.7
29892 kPa	1515.6 ± 1.7
29927 kPa	1515.6 ± 1.7
29953 kPa	1515.7 ± 1.7
29984 kPa	1515.8 ± 1.7
30015 kPa	1516 ± 1.7
30043 kPa	1516.2 ± 1.7
30079 kPa	1516.2 ± 1.7
30110 kPa	1516.3 ± 1.7
30145 kPa	1516.4 ± 1.7
30176 kPa	1516.5 ± 1.7
30211 kPa	1516.5 ± 1.7
30247 kPa	1516.7 ± 1.7
30277 kPa	1516.8 ± 1.7
30316 kPa	1516.9 ± 1.7
30341 kPa	1516.9 ± 1.7
30376 kPa	1517.1 ± 1.7
30406 kPa	1517.2 ± 1.7
30437 kPa	1517.3 ± 1.7
30464 kPa	1517.4 ± 1.7
30502 kPa	1517.5 ± 1.7
30529 kPa	1517.6 ± 1.7
30561 kPa	1517.7 ± 1.7
30597 kPa	1517.8 ± 1.7
30619 kPa	1518 ± 1.7
30655 kPa	1518.1 ± 1.7
30678 kPa	1518.1 ± 1.7
30713 kPa	1518.1 ± 1.7
30735 kPa	1518.4 ± 1.7
30769 kPa	1518.4 ± 1.7
30805 kPa	1518.6 ± 1.7
30842 kPa	1518.6 ± 1.7
30873 kPa	1518.8 ± 1.7
30910 kPa	1518.8 ± 1.7
30945 kPa	1518.9 ± 1.7
30977 kPa	1519.1 ± 1.7
31009 kPa	1519 ± 1.7
31044 kPa	1519.2 ± 1.7
31076 kPa	1519.4 ± 1.7
31117 kPa	1519.6 ± 1.7
31149 kPa	1519.7 ± 1.7
31186 kPa	1519.7 ± 1.7
31223 kPa	1519.8 ± 1.7
31256 kPa	1519.8 ± 1.7
31292 kPa	1519.9 ± 1.7
31319 kPa	1520.1 ± 1.7
31351 kPa	1520.3 ± 1.7
